Source: PMC9916978, “Enantioselective Human Serum Albumin Binding of Apremilast: Liquid Chromatographic, Fluorescence and Molecular Docking Study” (International Journal of Molecular Sciences, 2023)

Legend:
[1] = target: T1, human serum albumin (HSA) (Homo sapiens, UniProt P02768); assay: Fluorescence quenching titration of HSA, stability constants; type: binding; settings: 10 mM phosphate buffer pH 7, 25 °C, excitation 280 nm
T1 construct: purchased Chiral Technologies Inc., a subsidiary of Daicel Chemical Industries Ltd
Procedure: The observed fluorescence intensities of HSA and the HSA–APR complexes at increasing APR concentrations were plotted against the total concentration of APR in the solution, and the stability constants were calculated according to Equation (18) by nonlinear parameter fitting.
The fluorescence measurements were carried out on a Jasco J-815 spectropolarimeter with a connected CDF-426L fluorescence detector and a temperature-controlled 10 mm cuvette holder (Jasco, Tokyo, Japan), thermostated to 25 °C with a Lauda water bath circulation thermostat (Lauda Brinkmann, Königshofen, Germany). Spectra Manager software (ver.: 2.08.04) was used for data analysis. The fluorescence analysis was performed with an excitation spectrum of 260–300 nm and detection of the cumulative fluorescence spectrum. […] A volume of 3 mL of the HSA stock solution with an HSA concentration of 0.32 μM was titrated with 2.5–30 μL of S- and, separately, R-APR solutions prepared at 3.75 mg mL^−1 in MeOH, which equals to a range of 6.8–80.6 μM of APR in the measured solution.
The stability constants of both enantiomers were calculated. […] Note that since the fluorescence signal of the ligand (APR) was subtracted for each sample, (IAPR) could be excluded from this equation (8) Iobs.=IHSA·χHSA+IAPR−HSA·χAPR−HSA where ΧHSA is the mole fraction of free HSA, while ΧAPR-HSA is the mole fraction of the APR-HSA complex. […]

[2] = target: T1, human serum albumin (HSA); assay: Retention on Chiral-HSA column (HPLC) with different organic modifiers; type: binding; settings: 25 °C
Procedure: In the next step, different organic modifiers in different percentages were tested. Columns with immobilized proteins, such as Chiral-HSA, are very susceptible to the type and percentage of the organic modifier, which can lead to changes in the tridimensional structure of the protein and can alter the secondary interactions between the analyte and the CSP [30, 31]. According to the instructions of the column manufacturer, the maximum usable organic modifier percentage in the mobile phase was 20% [32]. In our study, the effect of 2-propanol (IPA), 1-propanol (PROP), ethanol (EtOH), methanol (MeOH) and acetonitrile (ACN) on the retention factor (k) and selectivity (α) was investigated. The organic modifiers were used in five different percentages in 10 mM phosphate buffer adjusted to pH 7, using a flow rate of 0.7 mL/min, at 25 °C.
LC–UV analysis was carried out on an Agilent 1100 HPLC system consisting of a quaternary pump, an autosampler, a column compartment, and a DAD detector (Agilent Technologies, Waldbronn, Germany). ChemStation software (ver.: B04 03-SP2) was used for data analysis. UV detection was performed at 230 nm. The APR stock solution was prepared at 1 mg mL^−1 in MeOH, and further dilutions were made with water. An injection volume of 5 μL was used.
The retention factor (k) was calculated using the following equation:(5) k=tr−t0/to where tr is the retention time of the analyte, and t0 is the dead time, determined as the first peak appearance in the chromatogram.
The separation factor (α) was calculated as follows:(6) α=k2/k1 where k1 and k2 are the retention factors of the first- and second-eluting enantiomer, respectively. The k values were used to calculate the albumin-bound percentage (b%) using Equation (7) by zonal elution chromatography:(7) b%=k/1+k·100

[3] = 1-PROP 2% in 10 mM phosphate buffer pH 7, 0.7 mL/min
[4] = 1-PROP 4% in 10 mM phosphate buffer pH 7, 0.7 mL/min
[5] = 1-PROP 6% in 10 mM phosphate buffer pH 7, 0.7 mL/min
[6] = 1-PROP 8% in 10 mM phosphate buffer pH 7, 0.7 mL/min
[7] = 1-PROP 10% in 10 mM phosphate buffer pH 7, 0.7 mL/min
[8] = ACN 2% in 10 mM phosphate buffer pH 7, 0.7 mL/min
[9] = ACN 4% in 10 mM phosphate buffer pH 7, 0.7 mL/min
[10] = ACN 6% in 10 mM phosphate buffer pH 7, 0.7 mL/min
[11] = ACN 8% in 10 mM phosphate buffer pH 7, 0.7 mL/min
[12] = ACN 10% in 10 mM phosphate buffer pH 7, 0.7 mL/min
[13] = EtOH 2% in 10 mM phosphate buffer pH 7, 0.7 mL/min
[14] = EtOH 4% in 10 mM phosphate buffer pH 7, 0.7 mL/min
[15] = EtOH 6% in 10 mM phosphate buffer pH 7, 0.7 mL/min
[16] = EtOH 8% in 10 mM phosphate buffer pH 7, 0.7 mL/min
[17] = EtOH 10% in 10 mM phosphate buffer pH 7, 0.7 mL/min
[18] = IPA 2% in 10 mM phosphate buffer pH 7, 0.7 mL/min
[19] = IPA 4% in 10 mM phosphate buffer pH 7, 0.7 mL/min
[20] = IPA 6% in 10 mM phosphate buffer pH 7, 0.7 mL/min
[21] = IPA 8% in 10 mM phosphate buffer pH 7, 0.7 mL/min
[22] = IPA 10% in 10 mM phosphate buffer pH 7, 0.7 mL/min
[23] = MeOH 2% in 10 mM phosphate buffer pH 7, 0.7 mL/min
[24] = MeOH 4% in 10 mM phosphate buffer pH 7, 0.7 mL/min
[25] = MeOH 6% in 10 mM phosphate buffer pH 7, 0.7 mL/min
[26] = MeOH 8% in 10 mM phosphate buffer pH 7, 0.7 mL/min
[27] = MeOH 10% in 10 mM phosphate buffer pH 7, 0.7 mL/min

T1 sequence (P02768 25-609): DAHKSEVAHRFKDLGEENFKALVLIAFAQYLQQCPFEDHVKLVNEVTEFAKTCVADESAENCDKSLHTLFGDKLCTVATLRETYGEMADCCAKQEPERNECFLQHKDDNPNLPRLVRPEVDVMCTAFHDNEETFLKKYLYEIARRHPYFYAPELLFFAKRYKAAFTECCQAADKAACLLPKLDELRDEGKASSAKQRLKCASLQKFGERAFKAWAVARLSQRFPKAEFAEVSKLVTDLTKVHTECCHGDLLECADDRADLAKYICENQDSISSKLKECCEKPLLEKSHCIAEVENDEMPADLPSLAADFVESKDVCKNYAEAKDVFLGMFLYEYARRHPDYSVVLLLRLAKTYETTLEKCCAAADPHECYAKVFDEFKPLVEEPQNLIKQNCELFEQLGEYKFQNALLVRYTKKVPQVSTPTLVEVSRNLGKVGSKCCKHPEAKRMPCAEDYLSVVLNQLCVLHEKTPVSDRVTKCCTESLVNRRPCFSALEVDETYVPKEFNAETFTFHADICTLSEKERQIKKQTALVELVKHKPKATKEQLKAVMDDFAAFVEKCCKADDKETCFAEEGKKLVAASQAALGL

Row | stability constant K of the enantiomer–HSA complex [1] | retention factor k [2, 3] | retention factor k [2, 4] | retention factor k [2, 5] | retention factor k [2, 6] | retention factor k [2, 7] | retention factor k [2, 8] | retention factor k [2, 9] | retention factor k [2, 10] | retention factor k [2, 11] | retention factor k [2, 12] | retention factor k [2, 13] | retention factor k [2, 14] | retention factor k [2, 15] | retention factor k [2, 16] | retention factor k [2, 17] | retention factor k [2, 18] | retention factor k [2, 19] | retention factor k [2, 20] | retention factor k [2, 21] | Compound | also measured
1 | 10400 M⁻¹ | 13.98 | 8.04 | 5.20 | 2.25 | 1.32 | 10.05 | 4.90 | 3.09 | 2.03 | 1.42 | 13.84 | 6.52 | 4.12 | 3.20 | 2.94 | 13.48 | 7.62 | 3.76 | 2.56 | CCOc1cc([C@@H](CS(C)(=O)=O)N2C(=O)c3cccc(NC(C)=O)c3C2=O)ccc1OC [S-APR, apremilast] | retention factor k [2, 22]: 1.45; retention factor k [2, 23]: 19.00; retention factor k [2, 24]: 15.27; retention factor k [2, 25]: 8.07; retention factor k [2, 26]: 5.32; retention factor k [2, 27]: 3.98
2 | 6450 M⁻¹ | 8.99 | 5.96 | 4.19 | 1.99 | 1.32 | 7.56 | 3.98 | 2.80 | 2.03 | 1.42 | 8.72 | 4.93 | 3.33 | 2.83 | 2.66 | 8.04 | 5.00 | 3.01 | 2.26 | CCOc1cc([C@H](CS(C)(=O)=O)N2C(=O)c3cccc(NC(C)=O)c3C2=O)ccc1OC [R-APR] | retention factor k [2, 22]: 1.45; retention factor k [2, 23]: 13.05; retention factor k [2, 24]: 9.32; retention factor k [2, 25]: 6.05; retention factor k [2, 26]: 4.48; retention factor k [2, 27]: 3.72
